Test results published in patent US20150105252A1, “SUBSTITUTED PYRAZOLES AS HERBICIDES” (E I DU PONT DE NEMOURS AND COMPANY, priority 2013, published 2015).

Tests used:
Assay in all cases: Test C postemergence
blackgrass = assay type: in vivo, Alopecurus myosuroides; conditions: for Plant response rating (scale of 0 to 100 where 0 is no effect and 100 is complete control), Blackgrass: Postemergence, 31 g ai/ha, visually evaluated after 13 to 15 days; for Blackgrass plant response rating / Plant response rating, Blackgrass: postemergence; for Blackgrass plant response rating: 62 g ai/ha, scale 0 to 100
How it was run: (§1)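 Herbicidal effect is expressed as percent visual control (0–100) judged against untreated plants 13 to 15 days after treatment in the greenhouse. Preemergence pots contained seeds in a soil–sand blend; postemergence plants, 2–18 cm tall, grew in peat-based planting medium.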

ryegrass, Italian = assay type: in vivo, Lolium multiflorum; conditions: postemergence
How it was run: as §1

wheat = assay type: in vivo, Triticum aestivum; conditions: postemergence; for Plant response rating, Wheat: 250 g ai/ha, scale 0 to 100 (0 no effect, 100 complete control)
How it was run: as §1

galium = assay type: in vivo, Galium aparine; conditions: for Plant response rating (scale of 0 to 100 where 0 is no effect and 100 is complete control), Galium: Postemergence, 31 g ai/ha, visually evaluated after 13 to 15 days; for Galium plant response rating / Plant response rating, Galium: postemergence; for Galium plant response rating: 62 g ai/ha, scale 0 to 100
How it was run: as §1

corn = assay type: in vivo, Zea mays; conditions: for Plant response rating (scale of 0 to 100 where 0 is no effect and 100 is complete control), Corn: Postemergence, 31 g ai/ha, visually evaluated after 13 to 15 days; for Corn plant response rating / Plant response rating, Corn: postemergence; for Corn plant response rating: 62 g ai/ha, scale 0 to 100
How it was run: as §1

crabgrass, large = assay type: in vivo, Digitaria sanguinalis; conditions: for Plant response rating (scale of 0 to 100 where 0 is no effect and 100 is complete control), Crabgrass, Large: Postemergence, 31 g ai/ha, visually evaluated after 13 to 15 days; for Crabgrass, Large plant response rating / Plant response rating, Crabgrass, Large: postemergence; for Crabgrass, Large plant response rating: 62 g ai/ha, scale 0 to 100
How it was run: as §1

foxtail, giant = assay type: in vivo, Setaria faberii; conditions: for Plant response rating (scale of 0 to 100 where 0 is no effect and 100 is complete control), Foxtail, Giant: Postemergence, 31 g ai/ha, visually evaluated after 13 to 15 days; for Foxtail, Giant plant response rating / Plant response rating, Foxtail, Giant: postemergence; for Foxtail, Giant plant response rating: 62 g ai/ha, scale 0 to 100
How it was run: as §1

johnsongrass = assay type: in vivo, Sorghum halepense; conditions: for Plant response rating (scale of 0 to 100 where 0 is no effect and 100 is complete control), Johnsongrass: Postemergence, 31 g ai/ha, visually evaluated after 13 to 15 days; for Johnsongrass plant response rating / Plant response rating, Johnsongrass: postemergence; for Johnsongrass plant response rating: 62 g ai/ha, scale 0 to 100
How it was run: as §1

lambsquarters = assay type: in vivo, Chenopodium album; conditions: for Plant response rating (scale of 0 to 100 where 0 is no effect and 100 is complete control), Lambsquarters: Postemergence, 31 g ai/ha, visually evaluated after 13 to 15 days; for Lambsquarters plant response rating / Plant response rating, Lambsquarters: postemergence; for Lambsquarters plant response rating: 62 g ai/ha, scale 0 to 100
How it was run: as §1

pigweed = assay type: in vivo, Amaranthus retroflexus; conditions: postemergence; for Pigweed plant response rating: 62 g ai/ha, scale 0 to 100
How it was run: as §1

ragweed = assay type: in vivo, Ambrosia elation; conditions: postemergence
How it was run: as §1

soybean = assay type: in vivo, Glycine max; conditions: postemergence; for Plant response rating, Soybean: 250 g ai/ha, scale 0 to 100 (0 no effect, 100 complete control); for Soybean plant response rating: 125 g ai/ha, scale 0 to 100, 0 no effect, 100 complete control
How it was run: as §1

barnyardgrass = assay type: in vivo, Echinochloa crus-galli; conditions: for Plant response rating (scale of 0 to 100 where 0 is no effect and 100 is complete control), Barnyardgrass: Postemergence, 31 g ai/ha, visually evaluated after 13 to 15 days; for Barnyardgrass plant response rating / Plant response rating, Barnyardgrass: postemergence; for Barnyardgrass plant response rating: 62 g ai/ha, scale 0 to 100
How it was run: as §1

oat, wild = assay type: in vivo, Avena fatua; conditions: for Plant response rating (scale of 0 to 100 where 0 is no effect and 100 is complete control), Oat, Wild: Postemergence, 31 g ai/ha, visually evaluated after 13 to 15 days; for Oat, Wild plant response rating / Plant response rating, Oat, Wild: postemergence; for Oat, Wild plant response rating: 62 g ai/ha, scale 0 to 100
How it was run: as §1

kochia = assay type: in vivo, Kochia scoparia; conditions: for Plant response rating (scale of 0 to 100 where 0 is no effect and 100 is complete control), Kochia: Postemergence, 31 g ai/ha, visually evaluated after 13 to 15 days; for Kochia plant response rating / Plant response rating, Kochia: postemergence; for Kochia plant response rating: 62 g ai/ha, scale 0 to 100
How it was run: as §1

velvetleaf = assay type: in vivo, Abutilon theophrasti; conditions: postemergence; for Plant response rating, Velvetleaf: 250 g ai/ha, scale 0 to 100 (0 no effect, 100 complete control)
How it was run: as §1

chickweed = assay type: in vivo, Stellaria media; conditions: for Plant response rating (scale of 0 to 100 where 0 is no effect and 100 is complete control), Chickweed: Postemergence, 31 g ai/ha, visually evaluated after 13 to 15 days; for Chickweed plant response rating / Plant response rating, Chickweed: postemergence; for Chickweed plant response rating: 62 g ai/ha, scale 0 to 100
How it was run: as §1

[1] = 250 g ai/ha, scale 0 to 100 (0 no effect, 100 complete control)
[2] = 125 g ai/ha, scale 0 to 100, 0 no effect, 100 complete control

## CCNC(=O)c1cc(CC)n(Cc2ccnc(C(F)(F)F)c2)n1 [Compound 196]
blackgrass
  Plant response rating (scale of 0 to 100 where 0 is no effect and 100 is complete control), Blackgrass: 20
  Blackgrass plant response rating: 15
blackgrass; [1]
  Plant response rating, Blackgrass: 15
blackgrass; [2]
  Plant response rating, Blackgrass: 5
ryegrass, Italian; [1]
  Plant response rating, Ryegrass, Italian: 5
ryegrass, Italian; [2]
  Plant response rating, Ryegrass, Italian: 5
wheat
  Plant response rating, Wheat: 5
galium
  Plant response rating (scale of 0 to 100 where 0 is no effect and 100 is complete control), Galium: 40
  Galium plant response rating: 55
galium; [1]
  Plant response rating, Galium: 90
galium; [2]
  Plant response rating, Galium: 80
corn
  Plant response rating (scale of 0 to 100 where 0 is no effect and 100 is complete control), Corn: 5
  Corn plant response rating: 5
corn; [1]
  Plant response rating, Corn: 15
corn; [2]
  Plant response rating, Corn: 5
crabgrass, large
  Plant response rating (scale of 0 to 100 where 0 is no effect and 100 is complete control), Crabgrass, Large: 5
  Crabgrass, Large plant response rating: 5
crabgrass, large; [1]
  Plant response rating, Crabgrass, Large: 25
crabgrass, large; [2]
  Plant response rating, Crabgrass, Large: 10
foxtail, giant
  Plant response rating (scale of 0 to 100 where 0 is no effect and 100 is complete control), Foxtail, Giant: 5
  Foxtail, Giant plant response rating: 25
foxtail, giant; [1]
  Plant response rating, Foxtail, Giant: 20
foxtail, giant; [2]
  Plant response rating, Foxtail, Giant: 20
johnsongrass
  Plant response rating (scale of 0 to 100 where 0 is no effect and 100 is complete control), Johnsongrass: 0
  Johnsongrass plant response rating: 5
johnsongrass; [1]
  Plant response rating, Johnsongrass: 15
johnsongrass; [2]
  Plant response rating, Johnsongrass: 10
lambsquarters
  Plant response rating (scale of 0 to 100 where 0 is no effect and 100 is complete control), Lambsquarters: 60
  Lambsquarters plant response rating: 65
lambsquarters; [1]
  Plant response rating, Lambsquarters: 75
lambsquarters; [2]
  Plant response rating, Lambsquarters: 75
pigweed
  Pigweed plant response rating: 60
pigweed; [1]
  Plant response rating, Pigweed: 70
pigweed; [2]
  Plant response rating, Pigweed: 70
ragweed; [1]
  Plant response rating, Ragweed: 40
ragweed; [2]
  Plant response rating, Ragweed: 15
soybean
  Plant response rating, Soybean: 95
  Soybean plant response rating: 80
barnyardgrass
  Plant response rating (scale of 0 to 100 where 0 is no effect and 100 is complete control), Barnyardgrass: 5
  Barnyardgrass plant response rating: 5
barnyardgrass; [1]
  Plant response rating, Barnyardgrass: 35
barnyardgrass; [2]
  Plant response rating, Barnyardgrass: 20
oat, wild
  Plant response rating (scale of 0 to 100 where 0 is no effect and 100 is complete control), Oat, Wild: 5
  Oat, Wild plant response rating: 5
oat, wild; [1]
  Plant response rating, Oat, Wild: 15
oat, wild; [2]
  Plant response rating, Oat, Wild: 10
kochia
  Plant response rating (scale of 0 to 100 where 0 is no effect and 100 is complete control), Kochia: 80
  Kochia plant response rating: 85
kochia; [1]
  Plant response rating, Kochia: 90
kochia; [2]
  Plant response rating, Kochia: 90
velvetleaf
  Plant response rating, Velvetleaf: 50
chickweed
  Plant response rating (scale of 0 to 100 where 0 is no effect and 100 is complete control), Chickweed: 50
  Chickweed plant response rating: 60
chickweed; [1]
  Plant response rating, Chickweed: 80
chickweed; [2]
  Plant response rating, Chickweed: 80

## Cc1cc(C(=O)NC(C)C)nn1Cc1ccnc(C(F)(F)F)c1 [Compound 197]
blackgrass
  Plant response rating (scale of 0 to 100 where 0 is no effect and 100 is complete control), Blackgrass: 0
  Blackgrass plant response rating: 0
blackgrass; [1]
  Plant response rating, Blackgrass: 15
blackgrass; [2]
  Plant response rating, Blackgrass: 5
ryegrass, Italian; [1]
  Plant response rating, Ryegrass, Italian: 5
ryegrass, Italian; [2]
  Plant response rating, Ryegrass, Italian: 0
wheat
  Plant response rating, Wheat: 5
wheat; scale 0 to 100
  Wheat plant response rating: 5
galium
  Plant response rating (scale of 0 to 100 where 0 is no effect and 100 is complete control), Galium: 40
  Galium plant response rating: 50
galium; [1]
  Plant response rating, Galium: 85
galium; [2]
  Plant response rating, Galium: 50
corn
  Plant response rating (scale of 0 to 100 where 0 is no effect and 100 is complete control), Corn: 5
  Corn plant response rating: 5
corn; [1]
  Plant response rating, Corn: 10
corn; [2]
  Plant response rating, Corn: 5
crabgrass, large
  Plant response rating (scale of 0 to 100 where 0 is no effect and 100 is complete control), Crabgrass, Large: 5
  Crabgrass, Large plant response rating: 5
crabgrass, large; [1]
  Plant response rating, Crabgrass, Large: 15
crabgrass, large; [2]
  Plant response rating, Crabgrass, Large: 10
foxtail, giant
  Plant response rating (scale of 0 to 100 where 0 is no effect and 100 is complete control), Foxtail, Giant: 0
  Foxtail, Giant plant response rating: 0
foxtail, giant; [1]
  Plant response rating, Foxtail, Giant: 10
foxtail, giant; [2]
  Plant response rating, Foxtail, Giant: 5
johnsongrass
  Plant response rating (scale of 0 to 100 where 0 is no effect and 100 is complete control), Johnsongrass: 0
  Johnsongrass plant response rating: 65
johnsongrass; [1]
  Plant response rating, Johnsongrass: 5
johnsongrass; [2]
  Plant response rating, Johnsongrass: 0
lambsquarters
  Plant response rating (scale of 0 to 100 where 0 is no effect and 100 is complete control), Lambsquarters: 55
  Lambsquarters plant response rating: 55
lambsquarters; [1]
  Plant response rating, Lambsquarters: 85
lambsquarters; [2]
  Plant response rating, Lambsquarters: 60
pigweed
  Pigweed plant response rating: 60
pigweed; [1]
  Plant response rating, Pigweed: 70
pigweed; [2]
  Plant response rating, Pigweed: 65
ragweed; [1]
  Plant response rating, Ragweed: 55
ragweed; [2]
  Plant response rating, Ragweed: 40
soybean
  Plant response rating, Soybean: 95
  Soybean plant response rating: 90
barnyardgrass
  Plant response rating (scale of 0 to 100 where 0 is no effect and 100 is complete control), Barnyardgrass: 0
  Barnyardgrass plant response rating: 0
barnyardgrass; [1]
  Plant response rating, Barnyardgrass: 10
barnyardgrass; [2]
  Plant response rating, Barnyardgrass: 5
oat, wild
  Plant response rating (scale of 0 to 100 where 0 is no effect and 100 is complete control), Oat, Wild: 0
  Oat, Wild plant response rating: 0
oat, wild; [1]
  Plant response rating, Oat, Wild: 5
oat, wild; [2]
  Plant response rating, Oat, Wild: 5
kochia
  Plant response rating (scale of 0 to 100 where 0 is no effect and 100 is complete control), Kochia: 40
  Kochia plant response rating: 60
kochia; [1]
  Plant response rating, Kochia: 90
kochia; [2]
  Plant response rating, Kochia: 85
velvetleaf
  Plant response rating, Velvetleaf: 40
velvetleaf; scale 0 to 100
  Velvetleaf plant response rating: 40
chickweed
  Plant response rating (scale of 0 to 100 where 0 is no effect and 100 is complete control), Chickweed: 50
  Chickweed plant response rating: 55
chickweed; [1]
  Plant response rating, Chickweed: 80
chickweed; [2]
  Plant response rating, Chickweed: 60
